From US12595253B2, “Benzamides of pyrazolylamino-pyrimidinyl derivatives, and compositions and methods thereof” (LYNK PHARMACEUTICALS CO. LTD., priority 2019, dated 2026) come the findings set out here.

Where only a bound is given, the exact number is not on record here.

Holding throughout (format): biochemical
One test has as its target T1, JAK2 (Homo sapiens, UniProt O60674).
T1 construct: purchased Carna Biosciences
As to the kind of experiment: JAK2 microfluidic kinase assay (Caliper EZ Reader II, FAM labeled peptide substrate). A digest of the protocol: (§1)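 Activity measured in 50 mM HEPES, 0.01% Brij35, 10 mM MgCl2, 2 mM DTT by microfluidic separation of phosphorylated FAM peptide. Enzyme conditions set for 10% substrate conversion.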

The target in another test is T2, TYK2 (Homo sapiens, UniProt P29597).
T2 construct: purchased Carna Biosciences
T2 sequence (P29597 whole entry): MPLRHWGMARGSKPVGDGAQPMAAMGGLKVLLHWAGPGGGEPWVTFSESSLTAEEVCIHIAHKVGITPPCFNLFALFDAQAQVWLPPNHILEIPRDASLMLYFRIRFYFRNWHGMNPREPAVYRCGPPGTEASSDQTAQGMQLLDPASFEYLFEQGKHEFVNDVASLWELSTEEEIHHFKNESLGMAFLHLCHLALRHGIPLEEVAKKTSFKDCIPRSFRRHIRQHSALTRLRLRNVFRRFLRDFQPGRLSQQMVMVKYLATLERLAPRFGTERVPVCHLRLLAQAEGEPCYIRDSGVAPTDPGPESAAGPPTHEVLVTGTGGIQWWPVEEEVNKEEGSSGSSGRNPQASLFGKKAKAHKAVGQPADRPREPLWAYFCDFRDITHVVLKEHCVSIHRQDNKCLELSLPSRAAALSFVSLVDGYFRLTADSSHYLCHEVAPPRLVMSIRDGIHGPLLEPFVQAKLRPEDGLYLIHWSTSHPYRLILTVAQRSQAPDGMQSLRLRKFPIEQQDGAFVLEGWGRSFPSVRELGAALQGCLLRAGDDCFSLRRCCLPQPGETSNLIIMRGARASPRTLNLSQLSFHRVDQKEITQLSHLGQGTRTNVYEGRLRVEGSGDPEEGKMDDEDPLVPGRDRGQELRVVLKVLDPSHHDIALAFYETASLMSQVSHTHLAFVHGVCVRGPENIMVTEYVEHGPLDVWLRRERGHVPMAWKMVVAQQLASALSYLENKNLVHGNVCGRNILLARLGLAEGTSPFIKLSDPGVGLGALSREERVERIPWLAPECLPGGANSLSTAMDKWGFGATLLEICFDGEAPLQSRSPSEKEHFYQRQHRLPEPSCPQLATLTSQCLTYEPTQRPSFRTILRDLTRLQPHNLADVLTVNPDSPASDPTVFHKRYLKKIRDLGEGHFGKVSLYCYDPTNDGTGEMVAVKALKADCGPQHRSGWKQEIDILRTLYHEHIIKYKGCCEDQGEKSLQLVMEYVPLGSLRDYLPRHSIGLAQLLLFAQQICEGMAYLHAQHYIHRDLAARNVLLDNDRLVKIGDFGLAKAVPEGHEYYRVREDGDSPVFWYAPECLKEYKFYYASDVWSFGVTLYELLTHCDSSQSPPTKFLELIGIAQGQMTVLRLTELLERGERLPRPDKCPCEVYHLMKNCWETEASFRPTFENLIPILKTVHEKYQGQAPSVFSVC
As to the kind of experiment: TYK2 microfluidic kinase assay (Caliper EZ Reader II, FAM labeled peptide substrate). As to the method: Compounds were tested against JAK1, JAK2, JAK2V617F and TYK2. Assay Formats: JAK activity was determined in the reaction buffer 50 mM HEPES, 0.01% Brij35, 10 mM MgCl2, 2 mM DTT by a microfluidic assay. The phosphorylation of a FAM labeled peptide substrate was monitored in the Caliper EZ Reader II (Perkin Elmer). The assay condition for each batch of enzyme (Carna Biosciences) was optimized to obtain 10% conversion rate of peptide substrate. The test compounds were dissolved in DMSO to a stock concentration of 10 mM. 3-fold serially diluted compounds with top concentration of 5 μM were pre-incubated with JAK1, JAK2, JAK2V617F or TYK2 at indicated concentrations for 10 min at ambient temperature. The final DMSO concentration of assay mixture was 1%. […] The reaction was stopped by adding 50 mM EDTA. The reaction time for JAK1, JAK2, JAK2V617F and TYK2 was 120 min, 20 min, 30 min and 10 min, respectively. […] And the well without compound but with equivalent DMSO was defined as no inhibition. The percent inhibition was calculated by the following formula. % Inhibition=(Conversionmax−Conversionsample)/(Conversionmax−Conversionmin)*100 • Conversionmax means the conversion rate in the positive well without addition of compound • Conversionmin means the conversion rate in the well without addition of enzyme • Conversionsample means the conversion rate of test compounds The dose-response (percent inhibition) curve was plotted and IC50 values were determined by GraphPad software.

For another test, the target named is T3, JAK1 (Homo sapiens, UniProt P23458).
T3 construct: purchased Carna Biosciences
T3 sequence (P23458 whole entry): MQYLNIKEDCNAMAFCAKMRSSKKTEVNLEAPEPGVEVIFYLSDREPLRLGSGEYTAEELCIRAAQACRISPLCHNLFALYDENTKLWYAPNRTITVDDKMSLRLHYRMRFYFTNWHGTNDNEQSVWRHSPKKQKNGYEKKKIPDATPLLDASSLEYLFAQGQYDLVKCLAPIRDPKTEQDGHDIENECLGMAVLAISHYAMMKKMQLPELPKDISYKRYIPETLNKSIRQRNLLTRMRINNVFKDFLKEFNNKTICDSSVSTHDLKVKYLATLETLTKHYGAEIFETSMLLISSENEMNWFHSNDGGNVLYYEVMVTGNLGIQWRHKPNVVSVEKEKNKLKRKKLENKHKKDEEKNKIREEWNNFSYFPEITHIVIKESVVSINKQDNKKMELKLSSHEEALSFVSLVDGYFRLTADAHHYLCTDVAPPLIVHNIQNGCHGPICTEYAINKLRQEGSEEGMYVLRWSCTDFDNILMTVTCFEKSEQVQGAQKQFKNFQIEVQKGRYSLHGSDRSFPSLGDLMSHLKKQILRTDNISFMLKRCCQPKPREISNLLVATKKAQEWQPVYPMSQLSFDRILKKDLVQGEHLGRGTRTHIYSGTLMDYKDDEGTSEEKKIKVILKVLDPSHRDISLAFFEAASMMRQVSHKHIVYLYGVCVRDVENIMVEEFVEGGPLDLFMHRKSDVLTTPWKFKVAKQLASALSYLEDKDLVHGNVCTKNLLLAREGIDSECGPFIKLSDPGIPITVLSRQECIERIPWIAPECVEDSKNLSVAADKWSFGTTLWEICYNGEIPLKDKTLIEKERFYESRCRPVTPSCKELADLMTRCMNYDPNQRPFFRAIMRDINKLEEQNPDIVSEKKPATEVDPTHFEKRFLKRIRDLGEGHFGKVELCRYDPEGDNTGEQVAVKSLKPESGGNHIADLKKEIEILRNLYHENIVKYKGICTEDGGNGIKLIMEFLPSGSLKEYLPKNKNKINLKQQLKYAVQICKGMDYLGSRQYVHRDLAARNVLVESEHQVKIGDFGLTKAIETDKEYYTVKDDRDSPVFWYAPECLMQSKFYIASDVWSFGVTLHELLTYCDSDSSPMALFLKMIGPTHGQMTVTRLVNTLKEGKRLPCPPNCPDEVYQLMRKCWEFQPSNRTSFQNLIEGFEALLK
As to the kind of experiment: JAK1 microfluidic kinase assay (Caliper EZ Reader II, FAM labeled peptide substrate). The conditions noted are these: IC50 JAK1 (5 nM) (1 m MATP), JAK1 5 nM, 1 mM ATP. The method in brief: as §1

Where [1] appears, read: IC50 JAK2 ([…]) (1 mM ATP), 1 mM ATP.
The mark [2] stands for this setting: IC50 TYK2 ([…]) (1 mM ATP), TYK2 […], 1 mM ATP.

T1 sequence (O60674 whole entry): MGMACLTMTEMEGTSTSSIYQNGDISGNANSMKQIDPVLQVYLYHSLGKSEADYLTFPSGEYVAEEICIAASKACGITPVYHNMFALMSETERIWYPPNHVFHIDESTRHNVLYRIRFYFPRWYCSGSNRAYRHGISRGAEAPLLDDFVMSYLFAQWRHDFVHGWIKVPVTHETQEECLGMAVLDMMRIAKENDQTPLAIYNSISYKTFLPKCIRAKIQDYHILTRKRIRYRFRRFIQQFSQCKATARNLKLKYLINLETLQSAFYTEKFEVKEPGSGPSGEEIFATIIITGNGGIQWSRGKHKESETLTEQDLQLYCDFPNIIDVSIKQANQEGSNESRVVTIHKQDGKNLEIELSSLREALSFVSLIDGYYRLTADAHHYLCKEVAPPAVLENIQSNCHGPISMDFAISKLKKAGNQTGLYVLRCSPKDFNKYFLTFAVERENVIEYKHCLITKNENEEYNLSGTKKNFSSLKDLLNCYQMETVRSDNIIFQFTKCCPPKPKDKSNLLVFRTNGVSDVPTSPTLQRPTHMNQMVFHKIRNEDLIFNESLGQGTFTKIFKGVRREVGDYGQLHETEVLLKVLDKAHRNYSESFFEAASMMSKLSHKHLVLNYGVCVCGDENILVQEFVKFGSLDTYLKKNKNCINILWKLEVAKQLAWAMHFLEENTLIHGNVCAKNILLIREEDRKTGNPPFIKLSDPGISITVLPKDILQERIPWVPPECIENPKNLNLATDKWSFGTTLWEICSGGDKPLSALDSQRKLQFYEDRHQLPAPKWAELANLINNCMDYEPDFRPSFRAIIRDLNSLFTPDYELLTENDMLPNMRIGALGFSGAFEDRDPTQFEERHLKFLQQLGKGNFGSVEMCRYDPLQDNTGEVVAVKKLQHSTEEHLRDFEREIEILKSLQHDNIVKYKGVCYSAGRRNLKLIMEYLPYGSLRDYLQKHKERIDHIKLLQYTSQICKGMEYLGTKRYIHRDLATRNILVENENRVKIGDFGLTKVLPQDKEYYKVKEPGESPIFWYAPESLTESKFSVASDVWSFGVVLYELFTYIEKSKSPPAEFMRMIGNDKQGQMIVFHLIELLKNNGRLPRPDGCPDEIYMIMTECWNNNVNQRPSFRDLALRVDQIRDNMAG

For `Cc1cnc(Nc2cn[nH]c2)nc1-c1ccc(C(=O)N[C@@H](C)C#N)cc1` [Example 199, (S)-4-(2-((1H-Pyrazol-4-yl)amino)-5-methylpyrimidin-4-yl)-N-(1-cyanoethyl)benzamide], the results for the IC50 at JAK2 (setting [1]) and on TYK2 (setting [2]) were 30.8 nM and 30.2 nM, respectively.

For `C[C@@H](C#N)NC(=O)c1ccc(-c2nc(Nc3cnn(C4CC(C)(C)OC(C)(C)C4)c3)ncc2Cl)cc1` [Example 206, (S)-4-(5-Chloro-2-((1-(2,2,6,6-tetramethyltetrahydro-2H-pyran-4-yl)-1H-pyrazol-4-yl)amino)pyrimidin-4-yl)-N-(1-cyanoethyl)benzamide], the results for the IC50 against JAK2 (setting [1]), on JAK1 and against TYK2 (setting [2]) were less than 0.25 nM, 16.7 nM and 0.55 nM, respectively.

Regarding `CC[C@@H](C#N)NC(=O)c1ccc(-c2nc(Nc3cnn(C(C)C(F)(F)F)c3)ncc2C)cc1` (single isomer, unassigned) [Example 225, N—((S)-1-Cyanopropyl)-4-(5-methyl-2-((1-((R*)-1,1,1-trifluoropropan-2-yl)-1H-pyrazol-4-yl)amino)pyrimidin-4-yl)benzamide], the IC50 (commonly the concentration that gives 50% inhibition) against JAK2 (setting [1]) turned out to be 42.6 nM; against JAK1, 8.95 nM; against TYK2 (setting [2]), 66.9 nM.

Turning to `CC[C@@H](C#N)NC(=O)c1ccc(-c2nc(Nc3cnn(C4CCCNC4)c3)ncc2C)cc1` (stereo partly drawn) [Example 210, N—((S)-1-cyanopropyl)-4-(5-methyl-2-((1-(piperidin-3-yl)-1H-pyrazol-4-yl)amino)pyrimidin-4-yl)benzamide], the 50% inhibitory concentration (IC50) against JAK2 (setting [1]) came to 2.39 nM; against JAK1, 11.4 nM; against TYK2 (setting [2]) it was 88.2 nM.

Regarding `Cc1cnc(Nc2cnn(C3CCNCC3)c2)nc1-c1ccc(C(=O)N[C@H](C#N)C2CC2)cc1` [Example 156, (S)—N-(cyano(cyclopropyl)methyl)-4-(5-methyl-2-((1-(piperidin-4-yl)-1H-pyrazol-4-yl)amino)pyrimidin-4-yl)benzamide], the half-inhibitory concentration (IC50) was 0.79 nM against JAK2 (setting [1]), 2.93 nM against JAK1 and 3.15 nM against TYK2 (setting [2]).

Regarding `Cc1cnc(Nc2cnn(C3CCNCC3)c2)nc1-c1ccc(C(=O)NCC#N)cc1` [Example 212, N-(cyanomethyl)-4-(5-methyl-2-((1-(piperidin-4-yl)-1H-pyrazol-4-yl)amino)pyrimidin-4-yl)benzamide], the IC50 on JAK2 (setting [1]) was determined as 0.47 nM; at JAK1, 7.81 nM; against TYK2 (setting [2]) it was 76.4 nM.

For `Cc1cnc(Nc2cnn([C@H]3C[C@@H](C)N[C@@H](C)C3)c2)nc1-c1ccc(C(=O)N[C@@H](C)C#N)cc1` [Example 232, N—((S)-1-cyanoethyl)-4-(2-((1-((2S,4r,6R)-2,6-dimethylpiperidin-4-yl)-1H-pyrazol-4-yl)amino)-5-methylpyrimidin-4-yl)benzamide], the IC50 against JAK2 (setting [1]) was 0.43 nM; against JAK1, 9.9 nM; against TYK2 (setting [2]), 2.97 nM.

As to `CC[C@@H](C#N)NC(=O)c1ccc(-c2nc(Nc3cnn(C4CCCN(C)C4)c3)ncc2C)cc1` (stereo partly drawn) [Example 211, N—((S)-1-cyanopropyl)-4-(5-methyl-2-((1-(1-methylpiperidin-3-yl)-1H-pyrazol-4-yl)amino)pyrimidin-4-yl)benzamide], the values for the 50% inhibitory concentration (IC50) against JAK2 (setting [1]), against JAK1 and on TYK2 (setting [2]) were 0.66 nM, 20.5 nM and 58.1 nM, respectively.

As to `C[C@@H](C#N)NC(=O)c1ccc(-c2nc(Nc3cnn(C4CCN(C(=O)CO)CC4)c3)ncc2Cl)cc1` [Example 214, (S)-4-(5-chloro-2-((1-(1-(2-hydroxyacetyl)piperidin-4-yl)-1H-pyrazol-4-yl)amino)pyrimidin-4-yl)-N-(1-cyanoethyl)benzamide], the IC50 at JAK2 (setting [1]) was less than 0.25 nM; on JAK1, 15.6 nM; at TYK2 (setting [2]), 59.6 nM.

Consider `C[C@@H](C#N)NC(=O)c1ccc(-c2nc(Nc3cn[nH]c3)ncc2Cl)cc1` [Example 188, (S)-4-(2-((1H-pyrazol-4-yl)amino)-5-chloropyrimidin-4-yl)-N-(1-cyanoethyl)benzamide], for which the concentration for half-maximal inhibition (IC50) on JAK2 (setting [1]) was found to be 18.3 nM; at JAK1, 2.9 nM; on TYK2 (setting [2]) it was 20.4 nM.

As for `N#CCNC(=O)c1ccc(-c2nc(Nc3cnn(C4CCN(C(=O)CO)CC4)c3)ncc2Cl)cc1` [Example 218, 4-(5-Chloro-2-((1-(1-(2-hydroxyacetyl)piperidin-4-yl)-1H-pyrazol-4-yl)amino)pyrimidin-4-yl)-N-(cyanomethyl)benzamide], the IC50 against JAK2 (setting [1]) was less than 0.25 nM; against JAK1, 13 nM; on TYK2 (setting [2]), 58 nM.

In the case of `Cc1cnc(Nc2cnn(C3CCC(O)CC3)c2)nc1-c1ccc(C(=O)N[C@@H](C)C#N)cc1` (stereo partly drawn) [Example 209, (S)—N-(1-cyanoethyl)-4-(2-((1-(4-hydroxycyclohexyl)-1H-pyrazol-4-yl)amino)-5-methylpyrimidin-4-yl)benzamide], the IC50 at JAK2 (setting [1]) is less than 0.25 nM; against JAK1 it was 14.3 nM; on TYK2 (setting [2]), 9.11 nM.

Take `Cc1cnc(Nc2ccn(C)n2)nc1-c1ccc(C(=O)NCC#N)cc1` [Example 107, N-(Cyanomethyl)-4-(5-methyl-2-((1-methyl-1H-pyrazol-3-yl)amino)pyrimidin-4-yl)benzamide]: the IC50 against JAK2 (setting [1]) was 1150 nM; against JAK2 (IC50 JAK2 ([…]) (Km ATP), Km ATP) it was 28.1 nM; against JAK1, 2310 nM; at TYK2 (setting [2]), greater than 5000 nM.

For `Cc1cnc(Nc2cnn(C3CCNCC3)c2)nc1-c1ccc(C(=O)N[C@@H](C)C#N)cc1` [Example 170, (S)—N-(1-Cyanoethyl)-4-(5-methyl-2-((1-(piperidin-4-yl)-1H-pyrazol-4-yl)amino)pyrimidin-4-yl)benzamide], the half-maximal inhibitory concentration (IC50) was 0.78 nM at JAK2 (setting [1]), 6.66 nM at JAK1 and 1.04 nM on TYK2 (setting [2]).

Take `C[C@@H](C#N)NC(=O)c1ccc(-c2nc(Nc3cnn(CC(N)=O)c3)ncc2Cl)cc1` [Example 47, (S)-4-(2-((1-(2-amino-2-oxoethyl)-1H-pyrazol-4-yl)amino)-5-chloropyrimidin-4-yl)-N-(1-cyanoethyl)benzamide]: the 50% inhibitory concentration (IC50) worked out at 36.6 nM on JAK2 (setting [1]), 5.67 nM against JAK1 and 50.6 nM at TYK2 (setting [2]).

Regarding `COC[C@@H](C#N)NC(=O)c1ccc(-c2nc(Nc3cnn(CCO)c3)ncc2C)cc1` [Example 221, (R)—N-(1-cyano-2-methoxyethyl)-4-(2-((1-(2-hydroxyethyl)-1H-pyrazol-4-yl)amino)-5-methylpyrimidin-4-yl)benzamide], the concentration for half-maximal inhibition (IC50) against JAK2 (setting [1]) is 54.8 nM; against JAK1, 10.4 nM; at TYK2 (setting [2]), 62.3 nM.

On to `N#CCNC(=O)c1ccc(-c2nc(Nc3cnn(CC#N)c3)ncc2Cl)cc1` [Example 41, 4-(5-Chloro-2-((1-(cyanomethyl)-1H-pyrazol-4-yl)amino)pyrimidin-4-yl)-N-(cyanomethyl)benzamide], for which the IC50 stood at 31.8 nM at JAK2 (setting [1]), 6.45 nM against JAK1 and 71.2 nM against TYK2 (setting [2]).

Take `C[C@@H](C#N)NC(=O)c1ccc(-c2nc(Nc3cnn(CCC#N)c3)ncc2Cl)cc1` [Example 189, (S)-4-(5-Chloro-2-((1-(2-cyanoethyl)-1H-pyrazol-4-yl)amino)pyrimidin-4-yl)-N-(1-cyanoethyl)benzamide]: the results for the half-maximal inhibitory concentration (IC50) against JAK2 (setting [1]), on JAK1 and at TYK2 (setting [2]) were 44 nM, 4.02 nM and 85 nM, respectively.

For the compound `CC[C@@H](C#N)NC(=O)c1ccc(-c2nc(Nc3cnn(CCC#N)c3)ncc2C)cc1` [Example 217, (S)-4-(2-((1-(2-cyanoethyl)-1H-pyrazol-4-yl)amino)-5-methylpyrimidin-4-yl)-N-(1-cyanopropyl)benzamide], the 50% inhibitory concentration (IC50) turned out to be 39.8 nM against JAK2 (setting [1]), 2.71 nM against JAK1 and 40.9 nM at TYK2 (setting [2]).

Consider `CC[C@@H](C#N)NC(=O)c1ccc(-c2nc(Nc3cnn(C(C)C(F)(F)F)c3)ncc2C)cc1` (single isomer, unassigned) [Example 226, N—((S)-1-Cyanopropyl)-4-(5-methyl-2-((1-((S*)-1,1,1-trifluoropropan-2-yl)-1H-pyrazol-4-yl)amino)pyrimidin-4-yl)benzamide], for which the results for the half-inhibitory concentration (IC50) on JAK2 (setting [1]), at JAK1 and against TYK2 (setting [2]) were 32.2 nM, 4.24 nM and 57.3 nM, respectively.

Take `N#CCNC(=O)c1ccc(-c2nc(Nc3cnn(CC#N)c3)ncc2F)cc1` [Example 45, N-(cyanomethyl)-4-(2-((1-(cyanomethyl)-1H-pyrazol-4-yl)amino)-5-fluoropyrimidin-4-yl)benzamide]: the figures for the IC50 at JAK2 (setting [1]), at JAK1 and at TYK2 (setting [2]) were 256 nM, 59.6 nM and 251 nM, respectively.

Compound `N#CC1CN(C(=O)c2ccc(-c3nc(Nc4cnn(C5CC5)c4)ncc3C(F)F)cc2F)C1` [Example 126, 1-(4-(2-((1-Cyclopropyl-1H-pyrazol-4-yl)amino)-5-(difluoromethyl)pyrimidin-4-yl)-2-fluorobenzoyl)azetidine-3-carbonitrile] displayed an IC50 on TYK2 (IC50 TYK2 (10 nM) (Km ATP), TYK2 10 nM, Km ATP) of 1770 nM.
